Measurements published in PMC9201908, “Expansion of the Strigolactone Profluorescent Probes Repertory: The Right Probe for the Right Application” (Frontiers in Plant Science, 2022).
Several values for one entry are separate records, joined by “and”; a condition that tells them apart may be missing. Equal entries are not always repeated. Entries after “also recorded” stand apart in the source; their conditions may differ. Structures can show the parent of a compound that is named as a salt. Where two headings read alike, the source gives them in different places.

What was measured:
[1] = system: pea; test: Bioactivity of D14 inhibitors in pea; conditions: in vivo
[2] = system: rms1-10 pea mutant plants; test: Pea shoot-branching assay by direct application on the bud, rms1-10; format: in vivo, Pisum sativum; conditions: for Length of bud at node 3 /branch: direct application, rms1-10, 10 days after treatment; for Bioactivity on shoot branching inhibition (bud development): result in words
Procedure: (§1) Pea (Pisum sativum) branching mutant plants used in this study were described previously (Rameau et al., [1997]). The SL biosynthesis rms1-10 (M3T-884) and SL response rms3-4 (M2T-30) mutants were obtained from the dwarf cv. Térèse. Plants were grown in a greenhouse under long days as described by Braun et al. ([2012]).
The compounds to be tested were applied directly to the axillary bud with a micropipette as 10 μL of a solution containing 0.1% of acetone with 2% of polyethylene glycol 1,450, 50% of ethanol, and 0.4% of DMSO. The control 0 is the treatment with 0.1% of DMSO without compound. A total of 24 plants were sown per treatment in trays (2 repetitions of 12 plants). The treatment was done 8 days after sowing, on the axillary bud at node 3. The branches at nodes 1–2 were removed to encourage the outgrowth of axillary buds at nodes above. Nodes were numbered acropetally from the first scale leaf as node 1 and cotyledonary node as node 0. Bud growth at node 3 was measured 10 days after treatment. Plants with damaged main shoot apex or showing a dead white treated bud were discarded from the analysis. The SL-deficient rms1-10 pea mutant was used for all experiments and WT Térèse as control. SL-perceived rms3-4 pea mutant was used to test that when bioactive, the analog acts via RMS3, and it was also used to check the putative toxicity of probes.

[3] = system: Arabidopsis SL-deficient mutant max3-11; test: Hydroponic assay on Arabidopsis, rosette branches; format: in vivo, Arabidopsis thaliana; conditions: max3-11, hydroponic, 0.5 and 3 μM
Procedure: The hydroponic assay was adapted from the study by Cornet et al. ([2021]). Seeds were surface-sterilized for 8 min in a solution of ethanol (95%) and hypochlorite solution (10%; Bayrol, Mundolsheim, France) and were rinsed two times with ethanol (100%). Each seed was sown on top of a cut 0.5 ml Eppendorf tube filled with agar medium containing 0.65% of agar and 10% of nutritive solution of 5 mM NO3. Tubes were soaked in water and stored in the dark at 4°C for 2 days. Twelve plants per pipette tip box (13 × 9 × 7 cm) were grown and supplied with nutrient solution as in the study by Boyer et al. ([2014]) at a concentration of 5 ml/L (750 ml of solution per box). Every week, the nutrient solution was renewed and every 10 days one time, a fresh batch of treatment was added to the solution. The first treatment occurred at day 27 after sowing when plants started to bolt. The number of rosette branches was counted at day 42.

[4] = system: Ppccd8 mutant plants; test: Physcomitrium patens bioassay, number of filaments in the dark; format: in vivo; conditions: 1 μM; for Activity on filament number, one bioassay replication: Supplementary Figure 3
Procedure: Assays on Physcomitrium patens were performed on plants grown in 24-well plates, starting from very small pieces of moss tissues as described by Guillory and Bonhomme ([2021]). As for pea rms1, the Ppccd8 SL synthesis mutant was used for assays, since the effect of the compounds was better seen in this mutant vs. wild type (WT; Lopez-Obando et al., [2021]). For each treatment, 24 plants were grown in PpNO3 medium [minimal medium described by Ashton et al., [1979]], dispatched in three different plates. Plants were grown for 2 weeks under control conditions, then treated with fluorophores or probes (all compounds used at 1 μM), before being placed vertically in the dark for 10 days. A single picture of each well was taken under an Axio Zoom microscope (Zeiss) with a dedicated program. Filaments were counted using ImageJ software (http://imagej.nih.gov/ij/) as described by Guillory and Bonhomme ([2021]). Twenty-four plants were tested in each treatment.

[5] = biological target: T1, RMS3 protein (Pisum sativum, UniProt A0A109QYD3); test: DSF binding assay on RMS3; conditions: 10 µM RMS3, probe 0-400 µM
T1 construct: GST; made in house
T1 sequence (A0A109QYD3 1-267): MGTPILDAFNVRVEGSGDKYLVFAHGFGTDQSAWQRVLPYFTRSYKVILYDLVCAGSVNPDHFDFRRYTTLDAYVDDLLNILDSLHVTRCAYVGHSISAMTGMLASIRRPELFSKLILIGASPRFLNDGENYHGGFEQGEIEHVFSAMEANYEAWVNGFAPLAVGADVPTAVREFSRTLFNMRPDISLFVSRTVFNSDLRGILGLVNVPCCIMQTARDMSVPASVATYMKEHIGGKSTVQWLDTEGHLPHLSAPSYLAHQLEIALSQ
Excerpt: To search for a destabilization effect, which characterizes bioactive SL analogs with SL receptors, we performed DSF binding assay with our novel probes on RMS3 protein.
DSF assay with SL profluorescent probes. The melting temperature

[6] = system: rms1-10 pea mutant plants; test: Pea shoot-branching assay by vascular supply, rms1-10; format: in vivo, Pisum sativum; conditions: rms1-10, 3,000 nM
Procedure: as §1
The compounds to be tested were applied by vascular supply (Muñoz et al., [2021]). The control was the treatment with 0.1% of DMSO in water. A total of 12 plants were sown per treatment in trays and were treated with probes under node 3 bud generally 10 days after sowing. Compounds in DMSO solution were diluted with water to 3,000 nM for a treatment with 0.1% (v/v) DMSO. The branches at nodes 1 and 2 were removed to encourage the outgrowth of axillary buds at the nodes above. Nodes were numbered acropetally from the first scale leaf as node 1 and cotyledonary node as node 0. Bud growth at nodes 3 and 4 was measured with digital calipers 8–10 days after treatment. Plants with damaged main shoot apex or with a dead white treated-bud were discarded from the analysis. The SL-deficient rms1-10 pea mutant was used for all experiments.

[7] = biological target: T2, OsD14 (Oryza sativa subsp. japonica, UniProt Q10QA5); test: Enzymatic assay with profluorescent probes, OsD14; format: biochemical, Ozyza sativa; conditions: protein 0.33 μM, probe 10 μM
T2 construct: GST (N); made in house
T2 sequence (Q10QA5 with tags, fused parts or gaps): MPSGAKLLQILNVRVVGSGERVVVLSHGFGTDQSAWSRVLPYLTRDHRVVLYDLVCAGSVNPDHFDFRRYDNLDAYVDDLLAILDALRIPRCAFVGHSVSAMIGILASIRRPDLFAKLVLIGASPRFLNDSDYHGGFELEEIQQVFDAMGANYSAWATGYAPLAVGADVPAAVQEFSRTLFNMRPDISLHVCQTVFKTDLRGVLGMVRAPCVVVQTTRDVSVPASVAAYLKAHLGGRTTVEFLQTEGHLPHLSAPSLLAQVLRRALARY
Procedure: (§2) The enzyme activity was determined by measuring the release of the fluorescent intensities of each fluorophores resulting from the cleavage of profluorescent probes by RMS3, AtD14, OsD14, and DAD2 proteins in a SPARK M10 in a 96-well format (de Saint Germain et al., [2021a]). In the assay, using an Integra Viaflo 96 robot, 50 μL of a solution of protein at 0.33 μM in same buffer was added simultaneously in all 96 wells to 50 μL of profluorescent substrate solution (at varying concentrations, prepared from a 10 mM stock solution in 100% of DMSO) in PBS (100 mM of phosphate, pH 6.8, 150 mM of NaCl). After a lag time of 15 s, the formation of fluorophores was recorded over 3 h at 15 s intervals at 25°C. […] All experiments were repeated with three technical replicates. The fluorescence of each fluorophore was also determined for each measurement at the same time frame but in the absence of enzyme in order to determine the standard curves. For rapid enzymatic assays (Figure 8A, small panel), the solution of protein was added by the injector of the plate reader and then, the well was immediately read over 5 min with 1 s intervals. Same parameters were used to determine the fluorophore concentration.

[8] = system: ShD14; parameters: method as in Xu et al., 2018; conditions: ref Xu et al., 2018; cited from earlier work
[9] = biological target: T1, RMS3 protein; test: Enzymatic assay with profluorescent probes, RMS3; format: biochemical; conditions: probe 10 μM
[10] = biological target: T3, AtD14 (Arabidopsis thaliana, UniProt Q9SQR3); test: Enzymatic assay with profluorescent probes, AtD14; format: biochemical; conditions: protein 0.33 μM, probe 10 μM
T3 construct: GST; made in house
T3 sequence (Q9SQR3 1-267): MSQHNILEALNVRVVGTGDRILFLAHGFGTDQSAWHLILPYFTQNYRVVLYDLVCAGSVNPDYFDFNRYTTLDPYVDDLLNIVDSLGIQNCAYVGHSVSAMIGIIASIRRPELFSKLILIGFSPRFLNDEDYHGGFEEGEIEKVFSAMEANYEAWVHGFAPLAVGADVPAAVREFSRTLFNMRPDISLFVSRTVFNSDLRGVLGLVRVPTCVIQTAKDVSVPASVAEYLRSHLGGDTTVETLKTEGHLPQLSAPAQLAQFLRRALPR
Procedure: as §2

[11] = biological target: T4, DAD2 (Petunia hybrida, UniProt J9U5U9); test: Enzymatic assay with profluorescent probes, DAD2; format: biochemical; conditions: protein 0.33 μM, probe 10 μM
T4 construct: GST (N); made in house
T4 sequence (J9U5U9 1-267): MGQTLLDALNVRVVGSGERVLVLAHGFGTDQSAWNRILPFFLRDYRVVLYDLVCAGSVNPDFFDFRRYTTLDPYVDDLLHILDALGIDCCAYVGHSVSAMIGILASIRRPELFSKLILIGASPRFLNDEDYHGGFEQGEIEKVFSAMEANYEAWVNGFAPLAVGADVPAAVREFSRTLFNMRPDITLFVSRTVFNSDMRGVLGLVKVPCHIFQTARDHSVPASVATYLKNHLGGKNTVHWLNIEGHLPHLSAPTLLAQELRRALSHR
Procedure: as §2

[12] = system: rms1-10 pea mutant plants; conditions: direct application, rms1-10, tested previously, ref De saint Germain et al 2016, cited from earlier work
[13] = system: Ppccd8 mutant plants; conditions: WT and Ppccd8; ref Hoffmann et al., 2014; Lopez-Obando et al., 2021; cited from earlier work

O=C(N1CCc2ccccc21)n1ccnn1 [KK094]
Bioactivity in pea [1]: no bioactivity

CC1=CC(Oc2ccc3ccc(=O)oc3c2)OC1=O (racemic) [(±)-GC116]
Length of bud at node 3 /branch ([2]; 0.1 nM): 11.47 mm | Length of bud at node 3 /branch ([2]; 1 nM): 6.38 mm | Length of bud at node 3 /branch ([2]; 10 nM, mean per replicate): 2.47 mm and 2.26 mm and 5.20 mm and 4.34 mm and 3.85 mm | Length of bud at node 3 /branch ([2]; 100 nM, mean per replicate): 2.66 mm and 2.29 mm and 2.46 mm and 1.96 mm and 1.72 mm | Length of bud at node 3 /branch ([2]; 1,000 nM, mean per replicate): 1.67 mm and 3.13 mm and 1.60 mm and 2.22 mm and 1.97 mm and 2.21 mm | Length of bud at node 3 /branch ([2]; 10,000 nM, mean per replicate): 2.43 mm | Inhibition of bud development among probes with one methyl group on the D-ring ([2]; rms1-10, direct application, 10 nM): strongest inhibition of bud development | Bioactivity on shoot branching inhibition (bud development) ([2]; rms1-10, direct application): inhibition of bud development | Bioactivity on number of rosette branches [3]: bioactive at 3 μM | Activity on filament number, one bioassay replication [4]: no significant bioactivity | Destabilization of RMS3 (DSF) [5]: able to destabilize RMS3

CCOC(=O)c1ccccc1-c1c2ccc(=O)cc-2oc2cc(OC3C=C(C)C(=O)O3)ccc12 (racemic) [(±)-YLG, reference compound]
Length of bud at node 3 /branch ([2]; 10 nM, mean per replicate): 24.15 mm | Bioactivity on shoot branching inhibition (bud development) ([2]; rms1-10, direct application): inhibition of bud development; also recorded: less efficient than (±)-GR24 | Bioactivity by vascular supply compared to the coumarin derivatives series [6]: lower bioactivity | Bioactivity on number of rosette branches [3]: not bioactive | Activity on filament number [4]: less active | Activity on filament number, one bioassay replication [4]: no significant bioactivity | Cleavage of probe by OsD14 [7]: unable to cleave | Cleavage by ShD14 [8]: not able to cleave

Cc1c(Cl)cccc1Nc1ccccc1C(=O)O [TFA, tolfenamic acid]
Bioactivity in pea [1]: no bioactivity

CC1=CC(Oc2c(F)cc3c(C)cc(=O)oc3c2F)OC1=O (racemic) [(±)-GC240]
Bioactivity on shoot branching inhibition (bud development) ([2]; rms1-10, direct application): inhibition of bud development; also recorded: less efficient than (±)-GR24 | Cleavage kinetics by RMS3 ([9]; RMS3 400 nM, 25°C, result in words): Two-phase cleavage kinetics; also recorded: blocked at very low concentration | Cleavage of probe by RMS3 ([9]; protein 0.33 μM): able to cleave | Cleavage of probe by AtD14 [10]: able to cleave | Affinity of the rice SL receptor suggested by cleavage profile [7]: lower affinity | Cleavage of probe by OsD14 [7]: able to cleave | Cleavage of probe by DAD2 [11]: able to cleave | Length of bud at node 3 /branch ([12]; 1,000 nM): 2.52 mm | Length of bud at node 3 /branch ([12]; 5,000 nM): 2.61 mm

CC1=CC(Oc2ccc3nc4ccc(=O)cc-4oc3c2)OC1=O (racemic) [(±)-GC93, 7-[(4-Methyl-5-Oxo-2,5-Dihydrofuran-2-yl)Oxy]-3H-Phenoxazin-3-One]
Length of bud at node 3 /branch ([2]; 10 nM, mean per replicate): 17.73 mm | Length of bud at node 3 /branch ([2]; 10,000 nM, mean per replicate): 3.89 mm | Bioactivity on shoot branching inhibition (bud development) ([2]; rms1-10, direct application): inhibitory effect with statistical significance only at 10 μM | Bioactivity by vascular supply compared to the coumarin derivatives series [6]: lower bioactivity | Bioactivity on number of rosette branches [3]: not bioactive | Activity on filament number [4]: strongest activity

CC1=C[C@H](O/C=C2/C(=O)O[C@@H]3c4ccccc4C[C@H]23)OC1=O (racemic) [(±)-GR24, reference compound]
Bioactivity on number of rosette branches [3]: bioactive at both concentrations | Activity on filament number [4]: confirmed the previous activity | Effect on filament number [13]: decrease in filament number | Cleavage by ShD14 [8]: could cleave
